According to patent publication US10093630B2, “Pyrazole compounds and methods of making and using same” (ABIDE THERAPEUTICS, INC., priority 2014, dated 2018):

Tests used:
Experiment in all cases: In vitro competitive activity-based protein profiling (gel-based, FP-Rh or HT-01 probe)
Format in all cases: biochemical
FAAH = target: T1, FAAH (Mus musculus, UniProt O08914); conditions: for inhibition at 1 µM: 1 μM inhibitor, read-out: % Inhibition at 1 μM, B = FAAH; for inhibition at 10 µM: 10 μM inhibitor, read-out: % Inhibition at 10 μM, B = FAAH; for IC50: mouse brain membrane fraction or cell lysates, 30 min preincubation at 37° C., read-out: Mouse (IC50 value, nM) FAAH
T1 construct: Proteomes (mouse brain membrane fraction or cell lysates); from tissue; host or cells: mouse brain membrane fraction (or cell lysates, not specified)
T1 sequence (O08914 1-579): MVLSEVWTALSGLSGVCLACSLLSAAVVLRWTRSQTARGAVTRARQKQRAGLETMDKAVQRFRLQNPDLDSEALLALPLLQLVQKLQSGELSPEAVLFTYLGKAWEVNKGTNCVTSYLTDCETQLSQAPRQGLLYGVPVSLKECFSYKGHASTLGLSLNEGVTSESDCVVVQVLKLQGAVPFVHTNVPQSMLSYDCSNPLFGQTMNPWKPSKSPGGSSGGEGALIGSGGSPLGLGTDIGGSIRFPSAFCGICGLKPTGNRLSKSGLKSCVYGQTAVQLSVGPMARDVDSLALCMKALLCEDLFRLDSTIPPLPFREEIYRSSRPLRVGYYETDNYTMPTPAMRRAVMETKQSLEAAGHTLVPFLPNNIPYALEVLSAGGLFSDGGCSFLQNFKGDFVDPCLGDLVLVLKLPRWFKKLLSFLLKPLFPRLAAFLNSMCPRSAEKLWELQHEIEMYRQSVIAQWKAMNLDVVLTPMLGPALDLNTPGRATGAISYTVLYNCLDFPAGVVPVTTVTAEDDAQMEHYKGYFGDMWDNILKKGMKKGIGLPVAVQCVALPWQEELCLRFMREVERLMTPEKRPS
In short: (§1)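 Competitive labelling format in mouse brain membrane fractions or lysates at 1.0 mg/mL total protein: compounds preincubate 30 min at 37° C, activity probe FP-Rh or HT-01 then reacts 30 min at 37° C. Gel band fluorescence gives target activity.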

ABHD6 = target: T2, ABHD6 (Mus musculus, UniProt Q8R2Y0); conditions: for inhibition at 1 µM: 1 μM inhibitor, read-out: % Inhibition at 1 μM, C = ABHD6; for inhibition at 10 µM: 10 μM inhibitor, read-out: % Inhibition at 10 μM, C = ABHD6; for IC50: mouse brain membrane fraction or cell lysates, 30 min preincubation at 37° C., read-out: Mouse (IC50 value, nM) ABHD6
T2 construct: Proteomes (mouse brain membrane fraction or cell lysates); from tissue; host or cells: mouse brain membrane fraction (or cell lysates, not specified)
T2 sequence (Q8R2Y0 1-336): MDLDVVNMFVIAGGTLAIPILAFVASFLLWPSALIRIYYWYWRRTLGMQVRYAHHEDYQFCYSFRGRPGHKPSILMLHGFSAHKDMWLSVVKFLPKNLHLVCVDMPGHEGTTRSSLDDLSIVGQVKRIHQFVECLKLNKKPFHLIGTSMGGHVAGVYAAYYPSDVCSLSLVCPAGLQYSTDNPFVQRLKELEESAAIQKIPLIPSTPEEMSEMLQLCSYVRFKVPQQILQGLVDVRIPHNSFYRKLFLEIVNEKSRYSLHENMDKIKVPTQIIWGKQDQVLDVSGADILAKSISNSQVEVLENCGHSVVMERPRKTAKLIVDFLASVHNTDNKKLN
In short: as §1

MAGL = target: T3, MAGL (Mus musculus, UniProt O35678); conditions: for inhibition at 1 µM: 1 μM inhibitor; for inhibition at 10 µM: 10 μM inhibitor; for IC50: mouse brain membrane fraction or cell lysates, 30 min preincubation at 37° C., read-out: Mouse (IC50 value, nM) MAGL
T3 construct: Proteomes (mouse brain membrane fraction or cell lysates); from tissue; host or cells: mouse brain membrane fraction (or cell lysates, not specified)
T3 sequence (O35678 1-303): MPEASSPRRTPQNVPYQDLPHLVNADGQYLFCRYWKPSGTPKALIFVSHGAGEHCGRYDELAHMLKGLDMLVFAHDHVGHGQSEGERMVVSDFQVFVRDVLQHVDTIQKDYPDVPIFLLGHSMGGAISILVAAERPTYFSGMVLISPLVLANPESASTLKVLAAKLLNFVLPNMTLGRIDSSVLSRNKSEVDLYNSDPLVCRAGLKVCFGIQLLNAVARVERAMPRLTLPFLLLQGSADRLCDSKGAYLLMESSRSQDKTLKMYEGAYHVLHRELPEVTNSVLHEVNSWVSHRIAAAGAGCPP
In short: as §1

PLA2G7 = target: T4, PLA2G7 (Mus musculus, UniProt Q60963); conditions: for inhibition at 1 µM: 1 μM inhibitor, read-out: % Inhibition at 1 μM, D = PLA2G7; for inhibition at 10 µM: 10 μM inhibitor, read-out: % Inhibition at 10 μM, D = PLA2G7
T4 construct: Proteomes (mouse brain membrane fraction or cell lysates); from tissue; host or cells: mouse brain membrane fraction (or cell lysates, not specified)
T4 sequence (Q60963 22-440): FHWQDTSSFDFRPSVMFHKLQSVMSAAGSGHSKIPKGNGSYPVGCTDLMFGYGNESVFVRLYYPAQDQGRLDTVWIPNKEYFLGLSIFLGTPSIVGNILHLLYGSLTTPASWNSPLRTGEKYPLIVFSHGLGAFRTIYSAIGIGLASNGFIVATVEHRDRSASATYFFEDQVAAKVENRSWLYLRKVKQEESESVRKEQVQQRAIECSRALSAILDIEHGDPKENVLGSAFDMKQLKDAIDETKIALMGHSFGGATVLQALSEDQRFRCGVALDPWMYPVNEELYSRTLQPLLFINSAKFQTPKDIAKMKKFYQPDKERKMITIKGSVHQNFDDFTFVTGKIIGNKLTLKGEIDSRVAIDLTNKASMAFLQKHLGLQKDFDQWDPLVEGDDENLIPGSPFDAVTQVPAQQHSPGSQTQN
In short: as §1

SMILES	inhibition at 1 µM (FAAH) [%]	inhibition at 10 µM (FAAH) [%]	IC50 (FAAH) [nM]	inhibition at 1 µM (ABHD6) [%]	inhibition at 10 µM (ABHD6) [%]	IC50 (ABHD6) [nM]	inhibition at 1 µM (MAGL) [%]	inhibition at 10 µM (MAGL) [%]	IC50 (MAGL) [nM]	inhibition at 1 µM (PLA2G7) [%]	inhibition at 10 µM (PLA2G7) [%]	IC50 (PLA2G7; mouse brain membrane fraction or cell lysates, 30 min preincubation at 37° C.) [nM]
O=C(N1CCN(Cc2ccc(-c3ccccc3)cc2Cl)CC1)n1cc(Cl)cn1 [Example 139, (4-chloro-1H-pyrazol-1-yl)(4-((3-chlorobiphenyl-4-yl)methyl)piperazin-1-yl)methanone]	> 75	> 75	< 100	> 75	> 75	100 to 1000	> 75	> 75	< 100	< 25	> 75	> 1000
N#Cc1cnn(C(=O)N2CCN(Cc3ccc(-c4ccccc4)cc3Cl)CC2)c1 [Example 140, 1-(4-((3-chlorobiphenyl-4-yl)methyl)piperazine-1-carbonyl)-1H-pyrazole-4-carbonitrile]	> 75	> 75	–	> 75	> 75	–	> 75	> 75	–	> 75	> 75	–
COc1cc(-c2ccccc2)ccc1CN1CCN(C(=O)n2cc(Cl)cn2)CC1 [Example 141, (4-Chloro-1H-pyrazol-1-yl)(4-((3-methoxybiphenyl-4-yl)methyl)piperazin-1-yl)methanone]	> 75	> 75	100 to 1000	> 75	> 75	100 to 1000	> 75	> 75	< 100	< 25	> 75	–
Cc1cc(-c2ccccc2)ccc1CN1CCN(C(=O)n2cc(C(F)(F)F)cn2)CC1 [Example 142, (4-((3-Methylbiphenyl-4-yl)methyl)piperazin-1-yl)(4-(trifluoromethyl)-1H-pyrazol-1-yl)methanone]	> 75	> 75	< 100	> 75	> 75	100 to 1000	> 75	> 75	< 100	> 75	> 75	–
O=C(N1CCN(Cc2ccc(-c3ccccc3)cc2Cl)CC1)n1cc(C(F)(F)F)cn1 [Example 143, (4-((3-Chlorobiphenyl-4-yl)methyl)piperazin-1-yl)(4-(trifluoromethyl)-1H-pyrazol-1-yl)methanone]	> 75	> 75	< 100	> 75	> 75	100 to 1000	> 75	> 75	< 100	25 to 75	> 75	–
COc1cc(-c2ccccc2)ccc1CN1CCN(C(=O)n2cc(C(F)(F)F)cn2)CC1 [Example 144, (4-((3-Methoxybiphenyl-4-yl)methyl)piperazin-1-yl)(4-(trifluoromethyl)-1H-pyrazol-1-yl)methanone]	> 75	> 75	–	> 75	> 75	–	> 75	> 75	–	> 75	> 75	–
COc1cc(-c2ccccc2)ccc1CN1CCN(C(=O)n2cc(C#N)cn2)CC1 [Example 145, 1-(4-((3-Methoxybiphenyl-4-yl)methyl)piperazine-1-carbonyl)-1H-pyrazole-4-carbonitrile]	> 75	> 75	–	> 75	> 75	–	> 75	> 75	–	> 75	> 75	–
N#Cc1cnn(C(=O)N2CCN(Cc3ccc(-c4ccccc4)cc3OCc3ccccc3)CC2)c1 [Example 146, 1-(4-((3-(Benzyloxy)biphenyl-4-yl)methyl)piperazine-1-carbonyl)-1H-pyrazole-4-carbonitrile]	> 75	> 75	–	> 75	> 75	–	> 75	> 75	–	< 25	> 75	–
O=C(N1CCN(Cc2ccc(-c3ccccc3)cc2OCc2ccccc2)CC1)n1cc(C(F)(F)F)cn1 [Example 147, (4-((3-(Benzyloxy)biphenyl-4-yl)methyl)piperazin-1-yl)(4-(trifluoromethyl)-1H-pyrazol-1-yl)methanone]	> 75	> 75	–	> 75	> 75	–	> 75	> 75	–	< 25	> 75	–

Other lines, results leading:

inhibition at 1 µM (FAAH) [%]	inhibition at 10 µM (FAAH) [%]	IC50 (FAAH) [nM]	inhibition at 1 µM (ABHD6) [%]	inhibition at 10 µM (ABHD6) [%]	IC50 (ABHD6) [nM]	inhibition at 1 µM (MAGL) [%]	inhibition at 10 µM (MAGL) [%]	IC50 (MAGL) [nM]	inhibition at 1 µM (PLA2G7) [%]	inhibition at 10 µM (PLA2G7) [%]	IC50 (PLA2G7; mouse brain membrane fraction or cell lysates, 30 min preincubation at 37° C.) [nM]	SMILES
> 75	> 75	–	> 75	> 75	–	> 75	> 75	–	< 25	< 25	–	O=C(N1CCN(Cc2ccc(-c3ccccc3)cc2OCc2ccccc2)CC1)n1cc(Cl)cn1 [Example 148, (4-((3-(Benzyloxy)biphenyl-4-yl)methyl)piperazin-1-yl)(4-chloro-1H-pyrazol-1-yl)methanone]
< 25	< 25	–	< 25	25 to 75	–	< 25	25 to 75	–	> 75	> 75	–	CC(=O)N1CCN(C(=O)n2cc(C(F)(F)F)cn2)CC1 [Example 149, 1-(4-(4-(Trifluoromethyl)-1H-pyrazole-1-carbonyl)piperazin-1-yl)ethanone]
< 25	25 to 75	–	> 75	> 75	–	< 25	25 to 75	–	> 75	> 75	–	CS(=O)(=O)N1CCN(C(=O)n2cc(C(F)(F)F)cn2)CC1 [Example 150, (4-(Methylsulfonyl)piperazin-1-yl)(4-(trifluoromethyl)-1H-pyrazol-1-yl)methanone]
> 75	> 75	–	> 75	> 75	–	< 25	> 75	–	25 to 75	> 75	–	CN1CCN(C(=O)n2cc(C(F)(F)F)cn2)CC1 [Example 151, (4-Methylpiperazin-1-yl)(4-(trifluoromethyl)-1H-pyrazol-1-yl)methanone]
